Data: patent US9708314B2, “Heterocyclic amide compound” (NISSAN CHEMICAL INDUSTRIES, LTD., priority 2013, dated 2017)

Columns and labels:
Assay type in all cases: in vivo
[1] = test system: Triticum aestivum; experiment: Test Example 4: effect on crop by application to foliage (diluvial soil, plastic box); details: for e (Triticum aestivum) effect on crop grade: Application herbicide amount 320 g/ha, foliage application
How it was run: (§1)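 Read-out is a 0–5 visual grade of herbicidal ratio (5: ≥90%, almost withered; 0: ≤5%) taken three weeks after treatment. Compound was applied as a diluted emulsion to stem and leaf parts of 14-day greenhouse-grown plants (25° C. to 30° C.) at rates expressed as g/ha.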

[2] = test system: Glycine max; experiment: as above; details: for d (Glycine max) effect on crop grade: Application herbicide amount 320 g/ha, foliage application
How it was run: as §1

[3] = test system: Beta vulgaris ssp. vulgaris; experiment: as above; details: for f (Beta vulgaris ssp. vulgaris) effect on crop grade: Application herbicide amount 320 g/ha, foliage application
How it was run: as §1

[4] = test system: Brassica campestris L.; experiment: as above; details: for g (Brassica campestris L.) effect on crop grade: Application herbicide amount 320 g/ha, foliage application
How it was run: as §1

[5] = test system: Zea mays; experiment: as above; details: for c (Zea mays) effect on crop grade: Application herbicide amount 320 g/ha, foliage application
How it was run: as §1

[6] = test system: directly sowed Oryza sativa; experiment: Test Example 3: effect on crop by application to foliage (Wagner pot, water depth 0.1-0.5 cm); details: Nineteenth Table; application to foliage; application herbicide amount 320 g/ha
How it was run: (§2)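 A small sprayer delivered the diluted emulsion uniformly to foliage at the chosen rate in g/ha, 14 days after sowing in Wagner pots held at 25–30 °C. Outcome: 0–5 herbicidal-ratio score read three weeks post-treatment.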

[7] = test system: Echinochloa crus-galli var. crus-galli; experiment: Test Example 4: herbicidal effect by application to foliage (diluvial soil, plastic box); details: for H (Echinochloa crus-galli var. crus-galli) herbicidal effect grade: Application herbicide amount 320 g/ha, foliage application
Description: (§3) 5 Herbicidal ratio of 90% or more (almost completely withered) 4 Herbicidal ratio of 70% or more and less than 90% 3 Herbicidal ratio of 40% or more and less than 70% 2 Herbicidal ratio of 20% or more and less than 40% 1 Herbicidal ratio of 5% or more and less than 20% 0 Herbicidal ratio of 5% or less (almost no effect) [Test Example 4] Herbicidal Effect Test by Application to Foliage Sterilized diluvial soil was placed in a plastic box having a length of 21 cm, a width of 13 cm, and a depth of 7 cm. Each of the seeds of Digitaria ciliaris, Setaria viridis, Echinochloa crus-galli var. crus-galli, Avena fatua, Alopecurus myosuroides, Lolium multiflorum Lam., Apera spica-venti., Abutilon theophrasti, Amaranthus retroflexus, Chenopodium album, Stellaria media, Galium spurium, Veronica persica, Zea mays, Glycine max, Oryza sativa, Triticum aestivum, Beta vulgaris ssp. vulgaris, and Brassica campestris L. was sowed in a spot-like manner and was covered with the soil of about 1.5 cm thick. Thereafter, the plants were grown in the greenhouse of 25° C. to 30° C. After the plants were grown for 14 days, the emulsion agent containing the compound of the present invention prepared in accordance with Formulation Example 2 was diluted with water so as to be a predetermined herbicide amount and the diluted compound was uniformly applied to a stem and leaf part with a small-size spray. Three weeks after the herbicide application, effects on each plant were investigated in accordance with the criteria of Test Example 1. A: Echinochloa oryzicola Vasing., B: Scirpus juncoides, C: Monochoria vaginalis, D: Leptochloa chinensis, E: Cyperus difformis, F: Digitaria ciliaris, G: Setaria viridis, H: Echinochloa crus-galli var. crus-galli, I: Avena fatua, J: Alopecurus myosuroides, K: Lolium multiflorum Lam., L: Apera spica-venti., M: Abutilon theophrasti, N: Amaranthus retroflexus, O: Chenopodium album, P: Stellaria media, Q: Galium spurium, R: Veronica persica, a: transplanted Oryza sativa, b: directly sowed Oryza sativa, c: Zea mays, d: Glycine max, e: Triticum aestivum, f: Beta vulgaris ssp. vulgaris, and g: Brassica campestris L. The application herbicide amount (g/ha) means an amount that a concentration is adjusted so that, when an application amount is converted into per hectare (1 ha), the herbicide is applied by the number of grams (g) of the described value.

[8] = test system: Veronica persica; experiment: as above; details: for R (Veronica persica) herbicidal effect grade: Application herbicide amount 320 g/ha, foliage application
Description: as §3

[9] = test system: Lolium multiflorum Lam.; experiment: as above; details: for K (Lolium multiflorum Lam.) herbicidal effect grade: Application herbicide amount 320 g/ha, foliage application
Description: as §3

[10] = test system: Avena fatua; experiment: as above; details: for I (Avena fatua) herbicidal effect grade: Application herbicide amount 320 g/ha, foliage application
Description: as §3

[11] = test system: Amaranthus retroflexus; experiment: as above; details: for N (Amaranthus retroflexus) herbicidal effect grade: Application herbicide amount 320 g/ha, foliage application
Description: as §3

[12] = test system: Chenopodium album; experiment: as above; details: for O (Chenopodium album) herbicidal effect grade: Application herbicide amount 320 g/ha, foliage application
Description: as §3

[13] = test system: Apera spica-venti.; experiment: as above; details: for L (Apera spica-venti.) herbicidal effect grade: Application herbicide amount 320 g/ha, foliage application
Description: as §3

[14] = test system: Alopecurus myosuroides; experiment: as above; details: for J (Alopecurus myosuroides) herbicidal effect grade: Application herbicide amount 320 g/ha, foliage application
Description: as §3

[15] = test system: Setaria viridis; experiment: as above; details: for G (Setaria viridis) herbicidal effect grade: Application herbicide amount 320 g/ha, foliage application
Description: as §3

[16] = test system: Galium spurium; experiment: as above; details: for Q (Galium spurium) herbicidal effect grade: Application herbicide amount 320 g/ha, foliage application
Description: as §3

[17] = test system: Stellaria media; experiment: as above; details: for P (Stellaria media) herbicidal effect grade: Application herbicide amount 320 g/ha, foliage application
Description: as §3

[18] = test system: Digitaria ciliaris; experiment: as above; details: for F (Digitaria ciliaris) herbicidal effect grade: Application herbicide amount 320 g/ha, foliage application
Description: as §3

[19] = test system: Abutilon theophrasti; experiment: as above; details: for M (Abutilon theophrasti) herbicidal effect grade: Application herbicide amount 320 g/ha, foliage application
Description: as §3

[20] = test system: Echinochloa crus-galli var. crus-galli; experiment: Test Example 3: herbicidal effect by application to foliage (Wagner pot, water depth 0.1-0.5 cm); details: Nineteenth Table; application to foliage; application herbicide amount 320 g/ha
How it was run: as §2

[21] = test system: Leptochloa chinensis; experiment: as above; details: Nineteenth Table; application to foliage; application herbicide amount 320 g/ha
How it was run: as §2

[22] = test system: Cyperus difformis; experiment: as above; details: Nineteenth Table; application to foliage; application herbicide amount 320 g/ha
How it was run: as §2

[23] = test system: directly sowed Oryza sativa; experiment: Test Example 4: effect on crop by application to foliage (diluvial soil, plastic box); details: application to foliage, 320 g/ha
How it was run: as §1

[24] = application to foliage, 320 g/ha

## COC(=O)CSc1nnc2c(C(=O)Nc3nnc(C)o3)ccc(C(F)(F)F)n12 [1-127]
[1]
  e (Triticum aestivum) effect on crop grade: 0 (Herbicidal ratio of 5% or less (almost no effect))
[2]
  d (Glycine max) effect on crop grade: 1 (Herbicidal ratio of 5% or more and less than 20%)
[3]
  f (Beta vulgaris ssp. vulgaris) effect on crop grade: 2 (Herbicidal ratio of 20% or more and less than 40%)
[4]
  g (Brassica campestris L.) effect on crop grade: 0 (Herbicidal ratio of 5% or less (almost no effect))
[5]
  c (Zea mays) effect on crop grade: 0 (Herbicidal ratio of 5% or less (almost no effect))
[6]
  b (effect on crop grade): 0 (Herbicidal ratio of 5% or less (almost no effect))
[7]
  H (Echinochloa crus-galli var. crus-galli) herbicidal effect grade: 4 (Herbicidal ratio of 70% or more and less than 90%)
[8]
  R (Veronica persica) herbicidal effect grade: 1 (Herbicidal ratio of 5% or more and less than 20%)
[9]
  K (Lolium multiflorum Lam.) herbicidal effect grade: 0 (Herbicidal ratio of 5% or less (almost no effect))
[10]
  I (Avena fatua) herbicidal effect grade: 0 (Herbicidal ratio of 5% or less (almost no effect))
[11]
  N (Amaranthus retroflexus) herbicidal effect grade: 1 (Herbicidal ratio of 5% or more and less than 20%)
[12]
  O (Chenopodium album) herbicidal effect grade: 5 (Herbicidal ratio of 90% or more (almost completely withered))
[13]
  L (Apera spica-venti.) herbicidal effect grade: 0 (Herbicidal ratio of 5% or less (almost no effect))
[14]
  J (Alopecurus myosuroides) herbicidal effect grade: 0 (Herbicidal ratio of 5% or less (almost no effect))
[15]
  G (Setaria viridis) herbicidal effect grade: 1 (Herbicidal ratio of 5% or more and less than 20%)
[16]
  Q (Galium spurium) herbicidal effect grade: 0 (Herbicidal ratio of 5% or less (almost no effect))
[17]
  P (Stellaria media) herbicidal effect grade: 3 (Herbicidal ratio of 40% or more and less than 70%)
[18]
  F (Digitaria ciliaris) herbicidal effect grade: 1 (Herbicidal ratio of 5% or more and less than 20%)
[19]
  M (Abutilon theophrasti) herbicidal effect grade: 2 (Herbicidal ratio of 20% or more and less than 40%)
[20]
  H (herbicidal effect grade): 4 (Herbicidal ratio of 70% or more and less than 90%)
[21]
  D (herbicidal effect grade): 4 (Herbicidal ratio of 70% or more and less than 90%)
[22]
  E (herbicidal effect grade): 3 (Herbicidal ratio of 40% or more and less than 70%)

## CSCc1nnc(NC(=O)c2ccc(C(F)(F)F)n3c(C(C)C)nnc23)o1 [1-141]
[1]
  e (Triticum aestivum) effect on crop grade: 0 (Herbicidal ratio of 5% or less (almost no effect))
[2]
  d (Glycine max) effect on crop grade: 1 (Herbicidal ratio of 5% or more and less than 20%)
[3]
  f (Beta vulgaris ssp. vulgaris) effect on crop grade: 4 (Herbicidal ratio of 70% or more and less than 90%)
[4]
  g (Brassica campestris L.) effect on crop grade: 4 (Herbicidal ratio of 70% or more and less than 90%)
[5]
  c (Zea mays) effect on crop grade: 0 (Herbicidal ratio of 5% or less (almost no effect))
[6]
  b (effect on crop grade): 1 (Herbicidal ratio of 5% or more and less than 20%)
[7]
  H (Echinochloa crus-galli var. crus-galli) herbicidal effect grade: 4 (Herbicidal ratio of 70% or more and less than 90%)
[8]
  R (Veronica persica) herbicidal effect grade: 3 (Herbicidal ratio of 40% or more and less than 70%)
[9]
  K (Lolium multiflorum Lam.) herbicidal effect grade: 0 (Herbicidal ratio of 5% or less (almost no effect))
[10]
  I (Avena fatua) herbicidal effect grade: 0 (Herbicidal ratio of 5% or less (almost no effect))
[11]
  N (Amaranthus retroflexus) herbicidal effect grade: 3 (Herbicidal ratio of 40% or more and less than 70%)
[12]
  O (Chenopodium album) herbicidal effect grade: 4 (Herbicidal ratio of 70% or more and less than 90%)
[13]
  L (Apera spica-venti.) herbicidal effect grade: 0 (Herbicidal ratio of 5% or less (almost no effect))
[14]
  J (Alopecurus myosuroides) herbicidal effect grade: 0 (Herbicidal ratio of 5% or less (almost no effect))
[15]
  G (Setaria viridis) herbicidal effect grade: 1 (Herbicidal ratio of 5% or more and less than 20%)
[16]
  Q (Galium spurium) herbicidal effect grade: 1 (Herbicidal ratio of 5% or more and less than 20%)
[17]
  P (Stellaria media) herbicidal effect grade: 3 (Herbicidal ratio of 40% or more and less than 70%)
[18]
  F (Digitaria ciliaris) herbicidal effect grade: 3 (Herbicidal ratio of 40% or more and less than 70%)
[19]
  M (Abutilon theophrasti) herbicidal effect grade: 3 (Herbicidal ratio of 40% or more and less than 70%)
[20]
  H (herbicidal effect grade): 4 (Herbicidal ratio of 70% or more and less than 90%)
[21]
  D (herbicidal effect grade): 2 (Herbicidal ratio of 20% or more and less than 40%)
[22]
  E (herbicidal effect grade): 3 (Herbicidal ratio of 40% or more and less than 70%)

## Cc1nonc1NC(=O)c1ccc(C(F)(F)F)n2c(SCC(C)C)nnc12 [3-002]
[1]; [24]
  effect on crop, e (Triticum aestivum): 0 (Herbicidal ratio of 5% or less (almost no effect))
[2]; [24]
  effect on crop, c (Glycine max): 0 (Herbicidal ratio of 5% or less (almost no effect))
[3]; [24]
  effect on crop, f (Beta vulgaris ssp. vulgaris): 0 (Herbicidal ratio of 5% or less (almost no effect))
[4]; [24]
  effect on crop, g (Brassica campestris L.): 0 (Herbicidal ratio of 5% or less (almost no effect))
[5]; [24]
  effect on crop, b (Zea mays): 0 (Herbicidal ratio of 5% or less (almost no effect))
[23]
  effect on crop, d (directly sowed Oryza sativa): 0 (Herbicidal ratio of 5% or less (almost no effect))
[6]
  b (effect on crop grade): 0 (Herbicidal ratio of 5% or less (almost no effect))
[7]; [24]
  herbicidal effect, H (Echinochloa crus-galli var. crus-galli): 0 (Herbicidal ratio of 5% or less (almost no effect))
[8]; [24]
  herbicidal effect, R (Veronica persica): 0 (Herbicidal ratio of 5% or less (almost no effect))
[9]; [24]
  herbicidal effect, K (Lolium multiflorum Lam.): 0 (Herbicidal ratio of 5% or less (almost no effect))
[10]; [24]
  herbicidal effect, I (Avena fatua): 0 (Herbicidal ratio of 5% or less (almost no effect))
[11]; [24]
  herbicidal effect, N (Amaranthus retroflexus): 3 (Herbicidal ratio of 40% or more and less than 70%)
[12]; [24]
  herbicidal effect, O (Chenopodium album): 4 (Herbicidal ratio of 70% or more and less than 90%)
[13]; [24]
  herbicidal effect, L (Apera spica-venti.): 0 (Herbicidal ratio of 5% or less (almost no effect))
[14]; [24]
  herbicidal effect, J (Alopecurus myosuroides): 0 (Herbicidal ratio of 5% or less (almost no effect))
[15]; [24]
  herbicidal effect, G (Setaria viridis): 0 (Herbicidal ratio of 5% or less (almost no effect))
[16]; [24]
  herbicidal effect, Q (Galium spurium): 0 (Herbicidal ratio of 5% or less (almost no effect))
[17]; [24]
  herbicidal effect, P (Stellaria media): 1 (Herbicidal ratio of 5% or more and less than 20%)
[18]; [24]
  herbicidal effect, F (Digitaria ciliaris): 0 (Herbicidal ratio of 5% or less (almost no effect))
[19]; [24]
  herbicidal effect, M (Abutilon theophrasti): 1 (Herbicidal ratio of 5% or more and less than 20%)
[20]
  H (herbicidal effect grade): 0 (Herbicidal ratio of 5% or less (almost no effect))
[21]
  D (herbicidal effect grade): 3 (Herbicidal ratio of 40% or more and less than 70%)
